Legend:
MC3T3-E1 cells = test: Cell proliferation rate by BrdU incorporation; format: cell-based, murine; conditions: vs RGD-tethered surfaces at low and high peptide surface densities
Protocol: Cells were seeded on surfaces in 10% serum for 16 h, and BrdU (3.1 μg/ml) was added for the last 4 h. After washing with DPBS, samples were fixed in 70% cold ethanol for 10 min, denatured in 4 M HC1 for 20 min, neutralized in 50 mM NaCl in 100 mM Tris-HCI (pH 7.4), washed, and blocked with 5% FBS+1% heat-denatured BSA. Cultures were incubated in anti-BrdU antibody (1:1000) and AlexaFluor488-conjugated anti-mouse IgG (1:200). Nuclei were counter-stained with Hoechst dye (1:10,000). Fluorescent images were used to quantify the number of cells positive for BrdU relative to total cell nuclei using an in-house image analysis routine. Ten representative fields were analyzed per well with multiple wells for each surface condition.

[1] = tested on: HFN7.1 monoclonal antibody; test: ELISA with HFN7.1 monoclonal antibody; format: binding; conditions: passively adsorbed ligands, various coating concentrations
Protocol: An ELISA was used to probe for the biological activity of the FNIII7-10 fragment compared to pFN. FNIII7-10 or pFN was adsorbed onto either uncoated or Neutravidin-coated (100 μg/ml) 96-well black U-well Dynex plates at various concentrations for 30 min. Following incubation in blocking buffer (0.25% BSA, 0.1 M EDTA, 2.5% Tween-20, 0.00125% NaN3), HFN7.1 antibody (0.6 μg/ml in blocking buffer) was added for 1 h at 37° C., and, after washing with blocking buffer, surfaces were incubated in alkaline phosphatase-conjugated anti-mouse IgG (0.6 μg/ml) for 1 h at 37° C. Washed surfaces were exposed to 4-methylumbelliferyl phosphate (25 mg/ml in 10 mM diethanolamine, pH 9.5). The resulting fluorescence was quantified using an HTS 7000 Plus plate reader (Perkin Elmer, Foster City, Calif.) at 360 nm excitation and 465 nm emission.

[2] = tested on: rat femur segmental defect; test: 8 mm segmental defect in the rat femur, micro-CT bone formation; format: in vivo; conditions: coated PCL scaffolds (20 μg/ml) vs PCL and empty defects; 4 and 12 weeks
Protocol: The ability of GFOGER peptide (SEQ ID NO:1)-coated polymeric scaffolds to heal critical sized defects was examined. […] A 8 mm segmental defect in the rat femur was used to evaluate bone repair. Three experimental groups were evaluated: (i) empty defect controls, (ii) PCL scaffolds, and (iii) GFOGER peptide (SEQ ID NO:1)-coated PCL scaffolds. Polycaprolactone (PCL) is a clinically used polymer widely used in orthopaedic and soft tissue applications. Scaffolds were passively coated with GFOGER peptide (SEQ ID NO:1) (20 μg/ml) as described above. Bone formation was assessed non-invasively via micro-computed tomography (micro-CT) at 4 and 12 weeks. […] No differences in bone formation were observed between PCL and empty defects.

[3] = tested on: bone marrow stromal cells; test: Calcium incorporation (matrix mineralization) assay; format: cell-based, rat; conditions: 14 days in culture; vs untreated titanium
Protocol: Primary bone marrow stromal cells were harvested from the femora of young adult male Wistar rats in accordance with an IACUC-approved protocol. After excision, hindleg femora and tibiae were cleared of soft tissue and rinsed in growth medium (α-minimal essential medium supplemented with 10% fetal bovine serum, 1% penicillin-streptomycin, and 0.3 μg/ml amphotericin B). The ends of the long bones were then removed and the marrow space was flushed with culture medium (3-5 ml), using a syringe with an 18-gauge needle. Marrow isolates were pooled, centrifuged, resuspended in growth medium, and seeded for adhesion-dependent selection on tissue culture polystyrene dishes. Non-adherent hematopoietic cells were removed during subsequent medium exchanges, which occurred every other day. Cells were subcultured every two days according to standard techniques. For in vitro osteogenic assays, cells were seeded at 10,000 cells/cm^2 in growth medium. After 24 h, cultures were maintained in osteogenic medium consisting of growth medium supplemented with 50 μg/ml L-ascorbic acid and 3 mM sodium β-glycerophosphate.
Calcium content was determined by dissolving mineralized deposits with 1 N acetic acid overnight. […] The absorbance of the resulting samples was measured at 650 nm and compared to a linear standard curve of CaCl2 in 1 N acetic acid.

Substance | cell proliferation rate (BrdU incorporation) (MC3T3-E1 cells) | HFN7.1 binding (biological activity) [1] | bone formation (micro-CT) [2] | calcium-based mineral deposition [3]
FNIII7-10: monobiotinylated recombinant fibronectin fragment spanning the 7-10th type III repeats of fibronectin; α5β1 integrin ligand | two-fold increase | equivalent functional activity |  | 
GGYGGGPC(GPP)5GFOGER(GPP)5GPC [GFOGER peptide] |  |  | enhancement in bone formation | three-fold enhancement
